Data reported in publication PMC9043818, “Coordination complexes of zinc and manganese based on pyridine-2,5-dicarboxylic acid N-oxide: DFT studies and antiproliferative activities consideration” (RSC Advances, 2021).
Read-outs that look alike come from different tables or passages of the source.

Tests used:
[1] = test system: human breast cancer cells MCF-7; assay: MTT antiproliferative assay, MCF-7; assay type: cell-based; settings: mean ± SD
Procedure: (§1) Human breast cancer cells MDA-MD-231 (ATCC HTB-26), human breast cancer cells MCF-7 (ATCC HTB-22), human cervix epithelial carcinoma HeLa (ATCC CCL-2), human colon cancer cell line HT-29 (ATCC HTB-38), mouse neuroblastoma cell line Neuro-2a (ATCC CCL-131) and mouse fibroblast L-929 cell line (ATCC CCL-1) were obtained from the American Type Culture Collection (ATCC; Manassas, VA, USA) and cultured at 37 °C in a humidified atmosphere of 5% CO2 in air. HeLa cells were cultured in Dulbecco's Modified Eagle's Medium (DMEM) with 0.1 mM nonessential amino acids, 2 mM L-glutamine, 1.0 mM sodium pyruvate and 5% fetal bovine serum, at 37 °C in an atmosphere of 5% CO2. Cells were plated in 96-well sterile plates at a density of 1 × 10^4 cells per well in 100 μL of medium and incubated for 24 h. Also MDA-MD-231, HT-29, MCF-7 and Neuro-2a were cultured in DMEM containing 10% fetal bovine serum, 100 units per ml of penicillin and 100 μg ml^−1 of streptomycin. L-929 cells were cultured in RPMI-1640 medium containing 10% fetal bovine serum, 100 units per ml of penicillin and 100 μg ml^−1 of streptomycin.
(§2) Complexes 1–3 ([Mn2(pydco)2(bpy)2(H2O)2]·2H2O (1), [Zn(bpy)(Hpydco)2] (2) and [Zn(bpy)Cl(Hpydco)]·2H2O (3)) were screened for antiproliferative activity against human breast cancer cells (MDA-MD-231), human cervix epithelial carcinoma (HeLa), human colon cancer cell line (HT-29), human breast cancer cells (MCF-7), mouse neuroblastoma cell line (Neuro-2a) and mouse fibroblast L-929 cell line using cisplatin as a comparative standard. Cell viability was evaluated by a colorimetric method based on the tetrazolium salt MTT ([3-(4,5-dimethylthiazol-2-yl)-2,5-diphenyltetrazolium bromide]), which is reduced by living cells to yield purple formazan crystals. Cells were seeded in 96-well plates at a density of 2–5 × 10^4 cells of MDA-MD-231, MCF-7, HeLa, HT-29, Neuro-2a and L-929 per well in 200 μL of culture medium and left to incubate overnight for optimal adherence. After careful removal of the medium, 200 μL of a dilution series of the complexes in fresh medium were added and incubation was performed at 37 °C/5% CO2 for 72 h. Complexes 1–3 were first solubilized in DMSO, diluted in medium and added to the cells in final concentrations between 20 nM and 200 μM. […] Cisplatin was first solubilized in saline and then added at the same concentrations used for the other complexes. At the end of the incubation period, the complexes were removed, and the cells were incubated with 200 μL of MTT solution (500 μg ml^−1). After 3–4 h at 37 °C/5% CO2, the medium was removed, and the purple formazan crystals were dissolved in 200 μL of DMSO by shaking. The cell viability was evaluated by measurement of the absorbance at 570 nm by using a STAT FAX-2100 microplate reader (Awareness Technology, Palm City, FL, USA). The cell viability was calculated by dividing the absorbance of each well by that of the control wells (cells treated with medium containing 1% DMSO). Each experiment was repeated at least three times and each point was determined in at least three replicates.
(§3) IC50 values are expressed as mean ± standard deviation (SD) from at least three independent experiments. Statistical tests including One way ANOVA, Tukey multiple comparison or unpaired Student's t-tests were performed using SPSS, ver.17 software. A p value of less than 0.05 was considered as significant.

[2] = test system: human breast cancer cells MDA-MD-231; assay: MTT antiproliferative assay, MDA-MD-231; assay type: cell-based; settings: 72 h incubation, mean ± SD
Procedure: as §1, §2, §3

[3] = test system: human colon cancer cell line HT-29; assay: MTT antiproliferative assay, HT-29; assay type: cell-based; settings: mean ± SD
Procedure: as §1, §2, §3

[4] = test system: human cervix epithelial carcinoma HeLa; assay: MTT antiproliferative assay, HeLa; assay type: cell-based; settings: 72 h incubation, mean ± SD
Procedure: as §1, §2, §3

[5] = test system: mouse neuroblastoma cell line Neuro-2a; assay: MTT antiproliferative assay, Neuro-2a; assay type: cell-based; settings: 72 h incubation, mean ± SD
Procedure: as §1, §2, §3

[6] = test system: mouse fibroblast L-929 cell line; assay: MTT assay, normal cell line L929; assay type: cell-based; settings: IC50 > 100 μM considered inactive, read-out: IC50 ± SD L929
Procedure: as §1, §2, §3

[7] = test system: MDA-MB-231 cancer cell line; assay: Apoptosis assay by flow cytometry (Annexin V-FITC/PI); assay type: cell-based, human; settings: for induction of apoptosis (flow cytometry): MDA-MB-231, 24 h; for induction of apoptosis (flow cytometry) / Apoptotic cells (%) / Late apoptotic/necrotic cells (%) / Necrotic cells (%) / Vital cells (%): concentration close to the IC50; for population of apoptotic cell, fold higher than cisplatin: at the same concentration as cisplatin; for Apoptotic cells (%) / Late apoptotic/necrotic cells (%) / Necrotic cells (%) / Vital cells (%): MDA-MD-231, 24 h
Procedure: In order to study in which way 1–3 produced the cellular death (necrosis or apoptosis) studies of flow cytometry were performed on the complexes and cisplatin as a reference. Four areas in the diagrams stand for necrotic cells (Q1, low Annexin V-FITC and high PI signal, left square on the top), late apoptosis or necrosis cells (Q2, high Annexin V-FITC and high PI signal, right square on the top), live cells (Q3, low Annexin V-FITC and low PI signal, left square at the bottom), apoptosis cells (Q4, high Annexin V-FITC and low PI signal, right square at the bottom), respectively.

[8] = test system: MDA-MB-231 breast cancer cells; assay: TUNEL assay (dUTP-FITC, confocal microscopy); assay type: cell-based, human; settings: MDA-MB-231, 24 h, vs 0.3% DMSO controls
Procedure: Analysis of apoptosis for 2 and 3 by cytometry using TUNEL assay. Also, apoptosis was detected using an in situ cell death detection kit (Boehringer Mannheim Corp., Indianapolis, IN) as described by Narla et al. and Zhu et al. (Narla et al., 2000;[42] Zhu et al., 1998 (ref. [43])). Cells were incubated with 1–3 in 0.3% DMSO or 1 : […], permeabilized and incubated with the reaction mixture containing TdT- and FITC-conjugated dUTP, and counterstained with propidium iodide. Cells were transferred to slides and viewed with a confocal laser scanning microscope (Bio-Rad MRC 1024) mounted on a Nikon Eclipse E800 series upright microscope as reported previously (Narla et al., 2000;[42] Zhu et al., 1998 (ref. [43])).

[9] = test system: MDA-MD-231, MCF-7, HeLa, HT-29, Neuro-2a and L-929 cell lines; assay: MTT assay, range over all cell lines; assay type: cell-based; settings: 72 h, all six cell lines, read-out: IC50 values, span over all cell lines
Procedure: Human breast cancer cells MDA-MD-231 (ATCC HTB-26), human breast cancer cells MCF-7 (ATCC HTB-22), human cervix epithelial carcinoma HeLa (ATCC CCL-2), human colon cancer cell line HT-29 (ATCC HTB-38), mouse neuroblastoma cell line Neuro-2a (ATCC CCL-131) and mouse fibroblast L-929 cell line (ATCC CCL-1) were obtained from the American Type Culture Collection (ATCC; Manassas, VA, USA) and cultured at 37 °C in a humidified atmosphere of 5% CO2 in air. HeLa cells were cultured in Dulbecco's Modified Eagle's Medium (DMEM) with 0.1 mM nonessential amino acids, 2 mM L-glutamine, 1.0 mM sodium pyruvate and 5% fetal bovine serum, at 37 °C in an atmosphere of 5% CO2. […]
Complexes 1–3 ([Mn2(pydco)2(bpy)2(H2O)2]·2H2O (1), [Zn(bpy)(Hpydco)2] (2) and [Zn(bpy)Cl(Hpydco)]·2H2O (3)) were screened for antiproliferative activity against human breast cancer cells (MDA-MD-231), human cervix epithelial carcinoma (HeLa), human colon cancer cell line (HT-29), human breast cancer cells (MCF-7), mouse neuroblastoma cell line (Neuro-2a) and mouse fibroblast L-929 cell line using cisplatin as a comparative standard. Cell viability was evaluated by a colorimetric method based on the tetrazolium salt MTT ([3-(4,5-dimethylthiazol-2-yl)-2,5-diphenyltetrazolium bromide]), which is reduced by living cells to yield purple formazan crystals. […]

[10] = experiment for 2 (Table 4), 2 and cisplatin at the same concentration
[11] = Homo sapiens, MCF7, 72 h incubation
[12] = Homo sapiens, HT-29, 72 h incubation
[13] = Mus musculus, L929, 72 h incubation
[14] = experiment for 3 (Table 5), 3 and cisplatin at the same concentration, MDA-MB-231

## [Mn2(pydco)2(bpy)2(H2O)2]·2H2O [Complex 1]
[1]; 72 h incubation
  IC50: 56.6 ± 7.78 µM
[2]
  IC50: 28.9 ± 2.47 µM
[3]; 72 h incubation
  IC50: 57.9 ± 4.71 µM
[4]
  IC50: 39.2 ± 2.98 µM
[5]
  IC50: 79.5 ± 8.44 µM
[6]; 72 h incubation
  IC50: > 100 µM

## [Zn(bpy)(Hpydco)2] [Complex 2]
[1]; 72 h incubation
  IC50: 15.6 ± 3.24 µM
[2]
  IC50: 5.94 ± 1.98 µM
[3]; 72 h incubation
  IC50: 17.3 ± 2.57 µM
[4]
  IC50: 41.2 ± 5.07 µM
[5]
  IC50: 81.2 ± 9.28 µM
[6]; 72 h incubation
  IC50: > 100 µM
[7]
  induction of apoptosis (flow cytometry): could induce apoptosis
[7]; MDA-MB-231
  population of apoptotic cell, fold higher than cisplatin: ~1.2 fold
[7]; [10]
  population of apoptotic cell (apoptotic + late apoptotic): 79.45%
[7]; experiment for 2
  Apoptotic cells (%): 43.91%
  Late apoptotic/necrotic cells (%): 35.54%
  Necrotic cells (%): 0.82%
  Vital cells (%): 19.73%
[8]
  induction of apoptosis (TUNEL, apoptotic nuclei): induce apoptosis
[9]
  IC50: 5.94 to 100 µM

## O=C(O)c1ccc(C(=O)O)[n+]([O-])c1 [Complex H2pydco, pyridine-2,5-dicarboxylic acid N-oxide]
[1]; [11]
  IC50: 57.9 ± 5.33 µM
[2]; Homo sapiens
  IC50: 45.7 ± 4.75 µM
[3]; [12]
  IC50: 58.9 ± 5.01 µM
[4]; Homo sapiens, HeLa
  IC50: 67.1 ± 5.45 µM
[5]; mouse/rat NG108-15, N2a
  IC50: > 100 µM
[6]; [13]
  IC50: > 100 µM

## c1ccc(-c2ccccn2)nc1 [bpy, 2,2′-bipyridine, reference compound]
[1]; [11]
  IC50: 51.3 ± 4.78 µM
[2]; Homo sapiens
  IC50: 24.9 ± 1.98 µM
[3]; [12]
  IC50: 67.8 ± 5.54 µM
[4]; Homo sapiens, HeLa
  IC50: 46.5 ± 4.03 µM
[5]; mouse/rat NG108-15, N2a
  IC50: 97.3 ± 8.7 µM
[6]; [13]
  IC50: > 100 µM

## N.N.[Cl][Pt][Cl] [Cisplatin, cisplatin, reference compound]
[1]; 72 h incubation
  IC50: 5.94 ± 1.47 µM
[2]
  IC50: 24.7 ± 4.71 µM
[3]; 72 h incubation
  IC50: 19.3 ± 3.46 µM
[4]
  IC50: 0.45 ± 0.13 µM
[5]
  IC50: 103 ± 9.8 µM
[6]; 72 h incubation
  IC50: 0.7 ± 0.2 µM
[7]; [10]
  population of apoptotic cell (apoptotic + late apoptotic): 65.28%
[7]; experiment for 2
  Apoptotic cells (%): 34.65%
  Late apoptotic/necrotic cells (%): 30.63%
  Necrotic cells (%): 0.98%
  Vital cells (%): 33.74%
[7]; [14]
  population of apoptotic cell (apoptotic + late apoptotic): 35.8%
[7]; experiment for 3
  Apoptotic cells (%): 15.80%
  Late apoptotic/necrotic cells (%): 20.00%
  Necrotic cells (%): 3.20%
  Vital cells (%): 61.00%

## [Zn(bpy)Cl(Hpydco)]·2H2O [Complex 3]
[1]; 72 h incubation
  IC50: 17.9 ± 2.66 µM
[2]
  IC50: 9.18 ± 2.25 µM
[3]; 72 h incubation
  IC50: 14.6 ± 3.55 µM
[4]
  IC50: 37.6 ± 4.61 µM
[5]
  IC50: 87.7 ± 6.93 µM
[6]; 72 h incubation
  IC50: > 100 µM
[7]
  induction of apoptosis (flow cytometry): could induce apoptosis
[7]; MDA-MB-231
  population of apoptotic cell, fold higher than cisplatin: ~1.8 fold
[7]; [14]
  population of apoptotic cell (apoptotic + late apoptotic): 63.3%
[7]; experiment for 3
  Apoptotic cells (%): 4.30%
  Late apoptotic/necrotic cells (%): 59.00%
  Necrotic cells (%): 4.70%
  Vital cells (%): 32.00%
[8]
  induction of apoptosis (TUNEL, apoptotic nuclei): induce apoptosis
[9]
  IC50: 5.94 to 100 µM
